Where two headings read alike, the source gives them in different places.
Legend:
HSV polymerase = HSV polymerase (Human herpesvirus 1, UniProt P04293); experiment: HSV polymerase assay (Table 1); assay type: biochemical; conditions: HSV polymerase; read-out: Polymerase IC50 HSV
HCMV polymerase = target: T1, HCMV polymerase (Human cytomegalovirus, UniProt P08546); experiment: HCMV polymerase scintillation proximity assay (SPA); assay type: biochemical
T1 construct: made in house; host or cells: recombinant baculovirus-infected SF-9 cells
T1 sequence (P08546 whole entry): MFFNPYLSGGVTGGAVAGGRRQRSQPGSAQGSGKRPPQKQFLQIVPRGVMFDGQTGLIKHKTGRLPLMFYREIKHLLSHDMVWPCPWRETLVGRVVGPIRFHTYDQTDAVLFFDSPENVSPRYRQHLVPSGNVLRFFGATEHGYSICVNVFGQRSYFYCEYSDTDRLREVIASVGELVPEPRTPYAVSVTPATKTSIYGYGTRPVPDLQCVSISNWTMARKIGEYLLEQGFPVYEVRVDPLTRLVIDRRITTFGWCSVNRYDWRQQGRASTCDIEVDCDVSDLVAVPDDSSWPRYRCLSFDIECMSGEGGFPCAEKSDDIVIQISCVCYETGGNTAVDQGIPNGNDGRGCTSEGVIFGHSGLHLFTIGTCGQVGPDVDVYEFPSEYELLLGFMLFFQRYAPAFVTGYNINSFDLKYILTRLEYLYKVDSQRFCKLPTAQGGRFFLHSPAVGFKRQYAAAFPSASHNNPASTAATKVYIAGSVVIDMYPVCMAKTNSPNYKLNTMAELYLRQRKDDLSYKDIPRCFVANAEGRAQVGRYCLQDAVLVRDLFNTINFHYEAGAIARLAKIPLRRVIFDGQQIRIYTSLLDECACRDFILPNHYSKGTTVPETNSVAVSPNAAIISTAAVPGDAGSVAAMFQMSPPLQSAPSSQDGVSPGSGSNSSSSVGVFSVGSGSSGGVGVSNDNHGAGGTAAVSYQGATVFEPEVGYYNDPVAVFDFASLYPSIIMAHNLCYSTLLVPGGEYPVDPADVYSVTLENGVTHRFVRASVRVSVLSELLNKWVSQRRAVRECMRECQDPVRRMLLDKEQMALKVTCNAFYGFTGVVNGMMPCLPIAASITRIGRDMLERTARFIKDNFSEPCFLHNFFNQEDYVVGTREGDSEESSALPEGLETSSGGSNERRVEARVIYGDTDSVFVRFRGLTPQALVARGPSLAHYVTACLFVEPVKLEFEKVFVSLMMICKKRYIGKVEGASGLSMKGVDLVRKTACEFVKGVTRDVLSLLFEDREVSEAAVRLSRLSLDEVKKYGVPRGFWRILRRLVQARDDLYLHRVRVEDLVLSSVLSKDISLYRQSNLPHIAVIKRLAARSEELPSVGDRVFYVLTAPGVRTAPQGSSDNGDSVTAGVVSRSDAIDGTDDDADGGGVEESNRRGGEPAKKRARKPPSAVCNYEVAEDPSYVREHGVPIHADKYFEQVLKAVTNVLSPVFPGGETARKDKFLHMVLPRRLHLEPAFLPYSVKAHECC
Description: The HCMV polymerase assay is performed using a scintillation proximity assay (SPA) as described in several references, such as N. D. Cook, et al., Pharmaceutical Manufacturing International, pages 49-53 (1992); KY Takeuchi, Laboratory Practice, September issue (1992); U.S. Pat. No. 4,568,649 (1986); which are incorporated by reference herein. Reactions are performed in 96-well plates. The assay is conducted in 100 yl volume with 5.4 mM HEPES (pH 7.5), 11.7 mM KCl, 4.5 mM MgCl2, 0.36 mg/ml BSA, and 90 nM ^3H-dTTP. Assays are run with and without CHAPS, (3-[(3-Cholamidopropyl)-dimethylammonio]-1-propane-sulfonate) at a final concentration of 2 mM. HCMV polymerase is diluted in enzyme dilution buffer containing 50% glycerol, 250 mM NaCl, 10 mM HEPES (pH 7.5), 100 μg/ml BSA, and 0.01% sodium azide. The HCMV polymerase, which is expressed in recombinant baculovirus-infected SF-9 cells and purified according to literature procedures, is added at 10% (or 10 μl) of the final reaction volume, i.e., 100 μl. Compounds are diluted in 50% DMSO and 10 μl are added to each well. Control wells contain an equivalent concentration of DMSO. Unless noted otherwise, reactions are initiated via the addition of 6 nM biotinylated poly(dA)-oligo(dT) template/primer to reaction mixtures containing the enzyme, substrate, and compounds of interest. Plates are incubated in a 25° C. or 37° C. H2O bath and terminated via the addition of 40 μl/reaction of 0.5 M EDTA (pH 8) per well. Reactions are terminated within the time-frame during which substrate incorporation is linear and varied depending upon the enzyme and conditions used, i.e., 30 min. for HCMV polymerase. Ten (10) μl of streptavidin-SPA beads (20 mg/ml in PBS/10% glycerol) are added following termination of the reaction. Plates are incubated 10 min. at 37° C., then equilibrated to room temperature, and counted on a Packard Topcount. Linear regressions are performed and IC50's are calculated using computer software.
A modified version of the above HCMV polymerase assay is performed as described above, but with the following changes: Compounds are diluted in 100% DMSO until final dilution into assay buffer. In the previous assay, compounds are diluted in 50% DMSO. 4.5 mM Dithiothreitol (DTT) is added to the polymerase buffer.
All results are listed as Polymerase IC50 ([…]) values. In Table 1, the term “n.d.” refers to activity data not determined.

VZV polymerase = VZV polymerase (Varicella-zoster virus, UniProt P09252); experiment: VZV polymerase assay (Table 1); assay type: biochemical; conditions: VZV polymerase; read-out: Polymerase IC50 VZV
Sequence of VZV polymerase (P09252 whole entry): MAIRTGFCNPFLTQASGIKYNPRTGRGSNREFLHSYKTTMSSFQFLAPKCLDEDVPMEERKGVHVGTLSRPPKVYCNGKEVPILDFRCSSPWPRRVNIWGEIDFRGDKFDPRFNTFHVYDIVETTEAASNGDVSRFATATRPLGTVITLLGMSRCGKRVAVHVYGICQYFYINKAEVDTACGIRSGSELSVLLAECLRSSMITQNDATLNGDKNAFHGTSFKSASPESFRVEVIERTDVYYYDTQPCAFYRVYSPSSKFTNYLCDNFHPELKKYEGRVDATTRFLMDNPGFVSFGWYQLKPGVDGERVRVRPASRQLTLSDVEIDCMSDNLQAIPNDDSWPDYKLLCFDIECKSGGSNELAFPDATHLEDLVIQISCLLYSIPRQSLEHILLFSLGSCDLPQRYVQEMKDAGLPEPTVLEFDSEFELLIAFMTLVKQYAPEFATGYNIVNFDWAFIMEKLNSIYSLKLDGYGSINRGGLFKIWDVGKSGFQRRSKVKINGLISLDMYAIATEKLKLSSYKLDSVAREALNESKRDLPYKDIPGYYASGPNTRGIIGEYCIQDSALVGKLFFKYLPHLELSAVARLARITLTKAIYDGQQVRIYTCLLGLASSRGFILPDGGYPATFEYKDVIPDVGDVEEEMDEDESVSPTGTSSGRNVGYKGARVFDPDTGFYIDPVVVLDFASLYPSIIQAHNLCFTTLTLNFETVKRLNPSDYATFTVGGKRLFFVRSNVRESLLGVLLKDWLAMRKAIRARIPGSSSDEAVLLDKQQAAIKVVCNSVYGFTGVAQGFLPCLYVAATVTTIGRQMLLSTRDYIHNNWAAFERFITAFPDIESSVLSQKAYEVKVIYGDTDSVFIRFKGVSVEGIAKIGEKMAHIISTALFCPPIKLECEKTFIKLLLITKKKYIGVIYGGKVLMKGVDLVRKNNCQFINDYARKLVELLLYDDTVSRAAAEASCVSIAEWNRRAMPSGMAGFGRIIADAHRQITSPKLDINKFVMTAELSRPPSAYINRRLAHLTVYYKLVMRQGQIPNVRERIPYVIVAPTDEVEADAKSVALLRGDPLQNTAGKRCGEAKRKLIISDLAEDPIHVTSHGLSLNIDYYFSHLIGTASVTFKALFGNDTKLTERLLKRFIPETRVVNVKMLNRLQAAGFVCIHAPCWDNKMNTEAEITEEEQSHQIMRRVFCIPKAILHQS

[1] = HCMV polymerase, SPA, read-out: Polymerase IC50 HCMV

Sequence of HSV polymerase (P04293 whole entry): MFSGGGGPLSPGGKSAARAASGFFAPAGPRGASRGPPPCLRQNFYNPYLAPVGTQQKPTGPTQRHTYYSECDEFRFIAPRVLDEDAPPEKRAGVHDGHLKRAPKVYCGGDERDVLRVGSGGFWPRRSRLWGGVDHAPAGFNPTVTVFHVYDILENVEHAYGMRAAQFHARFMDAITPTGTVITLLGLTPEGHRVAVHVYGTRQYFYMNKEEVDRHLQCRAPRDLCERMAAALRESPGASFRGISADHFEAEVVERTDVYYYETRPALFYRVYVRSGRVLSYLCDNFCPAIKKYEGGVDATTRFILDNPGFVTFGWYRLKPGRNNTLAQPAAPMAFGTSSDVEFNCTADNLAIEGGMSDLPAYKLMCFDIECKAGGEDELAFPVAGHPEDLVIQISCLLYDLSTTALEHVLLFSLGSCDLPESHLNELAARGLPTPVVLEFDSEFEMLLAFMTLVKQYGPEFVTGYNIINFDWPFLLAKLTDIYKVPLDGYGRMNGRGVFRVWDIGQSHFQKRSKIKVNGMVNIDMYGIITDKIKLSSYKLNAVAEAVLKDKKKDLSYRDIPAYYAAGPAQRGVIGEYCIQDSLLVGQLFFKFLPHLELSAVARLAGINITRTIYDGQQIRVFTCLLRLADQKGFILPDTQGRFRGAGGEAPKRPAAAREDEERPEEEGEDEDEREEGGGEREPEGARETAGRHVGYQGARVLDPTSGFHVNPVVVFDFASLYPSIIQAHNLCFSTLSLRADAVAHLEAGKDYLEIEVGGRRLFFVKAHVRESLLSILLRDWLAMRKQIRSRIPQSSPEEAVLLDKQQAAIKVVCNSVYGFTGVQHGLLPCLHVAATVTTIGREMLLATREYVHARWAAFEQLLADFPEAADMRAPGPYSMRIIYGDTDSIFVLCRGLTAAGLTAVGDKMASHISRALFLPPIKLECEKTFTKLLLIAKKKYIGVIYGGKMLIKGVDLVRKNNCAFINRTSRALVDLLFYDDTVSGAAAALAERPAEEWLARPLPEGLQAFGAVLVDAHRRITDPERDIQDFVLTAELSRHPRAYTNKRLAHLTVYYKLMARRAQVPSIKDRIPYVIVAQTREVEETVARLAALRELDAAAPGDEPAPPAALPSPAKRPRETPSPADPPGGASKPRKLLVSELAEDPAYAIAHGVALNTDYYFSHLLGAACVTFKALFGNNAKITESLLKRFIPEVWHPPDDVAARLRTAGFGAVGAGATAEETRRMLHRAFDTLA

With `CN(Cc1cc2c(=O)c(C(=O)NCc3ccc(Cl)cc3)cn(C)c2s1)CC(O)c1cc2ccccc2o1` (racemic) [Example 5, rac-2-(((2-(1-Benzofuran-2-yl)-2-hydroxyethyl)(methyl)amino)methyl)-N-(4-chlorobenzyl)-7-methyl-4-oxo-4,7-dihydrothieno[2,3-b]pyridine-5-carboxamide] the IC50 (HSV polymerase) was 30 nM, the melting point was 212 to 214 °C and the IC50 (HCMV polymerase; [1]) was 10 nM. The IC50 (VZV polymerase) was 10 nM.

`Cc1cc(C(O)CN(C)Cc2cc3c(=O)c(C(=O)NCc4ccc(Cl)cc4)cn(C)c3s2)oc1C` (racemic) [Example 30, rac-N-(4-Chlorobenzyl)-2-(((2-(4,5-dimethyl-2-furyl)-2-hydroxyethyl)(methyl)-amino)methyl)-7-methyl-4-oxo-4,7-dihydrothieno[2,3-b]pyridine-5-carboxamide] gave an IC50 (HSV polymerase) of 620 nM, a melting point of 166 to 167 °C and an IC50 (HCMV polymerase; [1]) of 140 nM. It also gave an IC50 (VZV polymerase) of 200 nM.

In the case of `CN(Cc1cc2c(=O)c(C(=O)NCc3ccc(Cl)cc3)cn(C)c2s1)CC(O)c1cc2ccccc2n1C` (racemic) [Example 14, rac-N-(4-Chlorobenzyl)-2-(((2-hydroxy-2-(1-methyl-1H-indol-2-yl)ethyl)(methyl)-amino)methyl)-7-methyl-4-oxo-4,7-dihydrothieno[2,3-b]pyridine-5-carboxamide], the IC50 (HSV polymerase) is reported as 530 nM, the melting point is reported as 128 to 132 °C (dec.) and the IC50 (HCMV polymerase; [1]) is reported as 100 nM. The IC50 (VZV polymerase) was 120 nM.

Work on `CN(Cc1cc2c(=O)c(C(=O)NCc3ccc(Cl)cc3)cn(C)c2s1)CC(O)c1cccn1C` (racemic) [Example 8, rac-N-(4-Chlorobenzyl)-2-(((2-hydroxy-2-(1-methyl-1H-pyrrol-2-yl)ethyl)-(methyl)amino)methyl)-7-methyl-4-oxo-4,7-dihydrothieno[2,3-b]pyridine-5-carboxamide] yielded an IC50 (HSV polymerase) of 850 nM, a melting point of 140 to 145 °C and an IC50 (HCMV polymerase; [1]) of 260 nM. The IC50 (VZV polymerase) was 320 nM.

In the case of `CN(Cc1cc2c(=O)c(C(=O)NCc3ccc(Cl)cc3)cn(C)c2s1)CC(O)c1csc2ccccc12` (racemic) [Example 13, rac-2-(((2-(1-Benzothien-3-yl)-2-hydroxyethyl)(methyl)amino)methyl)-N-(4-chlorobenzyl)-7-methyl-4-oxo-4,7-dihydrothieno[2,3-b]pyridine-5-carboxamide], the IC50 (HSV polymerase) is reported as 1920 nM, the melting point is reported as 213 to 219 °C (dec.) and the IC50 (HCMV polymerase; [1]) is reported as 170 nM. For the same compound, the IC50 (VZV polymerase) was 440 nM.

In the case of `CN(Cc1cc2c(=O)c(C(=O)NCc3ccc(Cl)cc3)cn(C)c2s1)CC(O)c1ccoc1` (racemic) [Example 4, rac-N-(4-Chlorobenzyl)-2-(((2-(3-furyl)-2-hydroxyethyl)(methyl)amino)methyl)-7-methyl-4-oxo-4,7-dihydrothieno[2,3-b]pyridine-5-carboxamide], the IC50 (HSV polymerase) is reported as 840 nM, the melting point is reported as 151 to 153 °C and the IC50 (HCMV polymerase; [1]) is reported as 250 nM. The IC50 (VZV polymerase) was 390 nM.

Work on `Cc1ccc(C(O)CN(C)Cc2cc3c(=O)c(C(=O)NCc4ccc(Cl)cc4)cn(C)c3s2)o1` (racemic) [Example 3, rac-N-(4-Chlorobenzyl)-2-(((2-hydroxy-2-(5-methyl-2-furyl)ethyl)(methyl)amino)methyl)-7-methyl-4-oxo-4,7-dihydrothieno[2,3-b]pyridine-5-carboxamide] yielded an IC50 (HSV polymerase) of 260 nM, a melting point of 137 to 140 °C and an IC50 (HCMV polymerase; [1]) of 70 nM. For the same compound, the IC50 (VZV polymerase) was 130 nM.

Compound `CN(Cc1cc2c(=O)c(C(=O)NCc3ccc(Cl)cc3)cn(C)c2s1)CC(O)c1nccs1` (racemic) [Example 16, rac-N-(4-Chlorobenzyl)-2-(((2-hydroxy-2-(1,3-thiazol-2-yl)ethyl)(methyl)amino)-methyl)-7-methyl-4-oxo-4,7-dihydrothieno[2,3-b]pyridine-5-carboxamide] has an IC50 (HSV polymerase) of 450 nM, a melting point of 129 to 133 °C and an IC50 (HCMV polymerase) of 200 nM. It also gave an IC50 (VZV polymerase) of 190 nM.

In the case of `CCn1cc(C(=O)NCc2ccc(Cl)cc2)c(=O)c2cc(CN(C)C[C@@H](O)c3ccco3)sc21` [Example 20, N-(4-Chlorobenzyl)-7-ethyl-2-((((2R)-2-(2-furyl)-2-hydroxyethyl)(methyl)amino)-methyl)-4-oxo-4,7-dihydrothieno [2,3-b]pyridine-5-carboxamide], the IC50 (HSV polymerase) is reported as 460 nM, the melting point is reported as 123 to 127 °C and the IC50 (HCMV polymerase; [1]) is reported as 220 nM. It also gave an IC50 (VZV polymerase) of 200 nM.

In the case of `CN(Cc1cc2c(=O)c(C(=O)NCc3ccc(Cl)cc3)cn(C)c2s1)CC(O)c1ccc[nH]1` (racemic) [Example 7, rac-N-(4-Chlorobenzyl)-2-(((2-hydroxy-2-(1H-pyrrol-2-yl)ethyl)(methyl)amino)-methyl)-7-methyl-4-oxo-4,7-dihydrothieno[2,3-b]pyridine-5-carboxamide], the IC50 (HSV polymerase) is reported as 980 nM, the melting point is reported as 169 to 172 °C (dec.) and the IC50 (HCMV polymerase; [1]) is reported as 300 nM. The IC50 (VZV polymerase) was 330 nM.

For `CN(Cc1cc2c(=O)c(C(=O)NCc3ccc(Cl)cc3)cn(C)c2s1)CC(O)c1c[nH]cn1` (racemic) [Example 10, rac-N-(4-Chlorobenzyl)-2-(((2-hydroxy-2-(1H-imidazol-4-yl)ethyl)(methyl)amino)methyl)-7-methyl-4-oxo-4,7-dihydrothieno[2,3-b]pyridine-5-carboxamide], the IC50 (HSV polymerase) was 1970 nM, the melting point was 164 to 169 °C and the IC50 (HCMV polymerase; [1]) was 450 nM. It also gave an IC50 (VZV polymerase) of 440 nM.

`CN(Cc1cc2c(=O)c(C(=O)NCc3ccc(Cl)cc3)cn(C)c2s1)CC(O)c1ccn[nH]1` (racemic) [Example 18, rac-N-(4-Chlorobenzyl)-2-(((2-hydroxy-2-(1H-pyrazol-5-yl)ethyl)(methyl)amino)-methyl)-7-methyl-4-oxo-4,7-dihydrothieno[2,3-b]pyridine-5-carboxamide] gave an IC50 (HSV polymerase) of 910 nM, a melting point of 177.5 to 178.6 °C and an IC50 (HCMV polymerase; [1]) of 350 nM. The IC50 (VZV polymerase) was 370 nM.

In the case of `CN(Cc1cc2c(=O)c(C(=O)NCc3ccc(Cl)cc3)cn(C)c2s1)CC(O)c1ccc(-c2ccccc2)o1` (racemic) [Example 31, rac-N-(4-Chlorobenzyl)-2-(((2-(5-phenyl-2-furyl)-2-hydroxyethyl)(methyl)-amino)methyl)-7-methyl-4-oxo-4,7-dihydrothieno[2,3-b]pyridine-5-carboxamide], the IC50 (HSV polymerase) is reported as 120 nM, the melting point is reported as 177 to 178 °C and the IC50 (HCMV polymerase; [1]) is reported as 70 nM. For the same compound, the IC50 (VZV polymerase) was 60 nM.

`COCCn1cc(C(=O)NCc2ccc(Cl)cc2)c(=O)c2cc(CN(C)CC(O)c3cc4ccccc4o3)sc21` (racemic) [Example 24, rac-2-(((2-(1-Benzofuran-2-yl)-2-hydroxyethyl)(methyl)amino)methyl)-N-(4-chlorobenzyl)-7-(2-methoxyethyl)-4-oxo-4,7-dihydrothieno[2,3-b]pyridine-5-carboxamide] gave a melting point of 133 to 140 °C and an IC50 (HCMV polymerase; [1]) of 310 nM.

With `CN(Cc1cc2c(=O)c(C(=O)NCc3ccc(Cl)cc3)cn(C)c2s1)CC(O)c1cn(C)cn1` (racemic) [Example 9, rac-N-(4-Chlorobenzyl)-2-(((2-hydroxy-2-(1-methyl-1H-imidazol-4-yl)ethyl) (methyl)amino)methyl)-7-methyl-4-oxo-4,7-dihydrothieno[2,3-b]pyridine-5-carboxamide] the melting point was 124 to 130 °C and the IC50 (HCMV polymerase; [1]) was 1060 nM.

With `CN(Cc1cc2c(=O)c(C(=O)NCc3ccc(Cl)cc3)cn(C)c2s1)CC(O)c1c[nH]c2ccccc12` (racemic) [Example 11, rac-N-(4-Chlorobenzyl)-2-(((2-hydroxy-2-(1H-indol-3-yl)ethyl)(methyl)amino)-methyl)-7-methyl-4-oxo-4,7-dihydrothieno[2,3-b]pyridine-5-carboxamide] the IC50 (HSV polymerase) was 200 nM, the melting point was 120 to 123 °C and the IC50 (HCMV polymerase; [1]) was 90 nM. It also gave an IC50 (VZV polymerase) of 90 nM.
